Experimental data: patent US11078228B2, “Ectonucleotidase inhibitors and methods of use thereof” (Calithera Biosciences, Inc., priority 2018, dated 2021)
Where two headings read alike, the source gives them in different places.

Tests used:
[1] = system: Human CD8+ T cells; assay: Reversal of AMP-mediated suppression of CD8+ T cells; type: cell-based; conditions: T-cell, 96 h, 4 days
Description: Human CD8+ T cells were labeled with CellTrace CFSE and then pre-incubated with an adenosine deaminase inhibitor and Compound 9 or vehicle for 20 minutes. 20 μM AMP was added for assessing T cell proliferation and CD25 expression. 10 μM AMP was added for assessing cytokine production. T cells were activated with α-CD3, α-CD28, and hIL2. After 4 days, proliferation and CD25 expression were assessed by flow cytometry and cytokine levels in the supernatant were measured by ELISA. EC50s were determined using a four-parameter dose-response curve equation.

[2] = target: human CD39 (Homo sapiens (Human), UniProt P49961); assay: Cell surface CD39 activity, K562 cells expressing human CD39, Kinase-Glo; type: cell-based
Description: (§1) Using Compound 9, the activity of cell surface CD39 was assessed using K562 cells expressing human CD39 and Kinase-Glo. Activity of recombinant human ENTPD2 and ENTPD3 was assessed using a malachite green assay. […] Compound 9 was screened in the Eurofins Safety Screen Panel and the Eurofins Express Diversity Kinase Profile Panel. In the Safety Panel, 1/87 targets were inhibited at >50% at 10 μM of Compound 9. The PDE3 enzyme was inhibited at 59%.

[3] = system: Eurofins Safety Screen Panel (87 targets); assay: Eurofins Safety Screen Panel; conditions: 10 μM
Description: as §1

[4] = target: CD73 activity in cancer patient serum (Homo sapiens (Human), UniProt P21589); assay: CD73 activity in cancer patient serum, LC/MS conversion of 15N5-AMP to 15N5-ADO; type: biochemical; conditions: TNAP inhibitor present
Description: Serum was procured from Discovery Life Sciences. Serum from head and neck squamous cell carcinoma (HNSCC), ovarian cancer, triple-negative breast cancer and esophageal cancer patients were incubated with a serial dilution of Compound 9 in the presence of a TNAP inhibitor. Conversion of ^15N5-AMP to ^15N5-ADO was measured by LC/MS. FIG. 10A depicts the sub-nanomolar inhibition of HNSCC serum. FIG. 10B depicts the sub-nanomolar inhibition of ovarian cancer serum. FIG. 10C depicts the sub-nanomolar inhibition of TNBC serum. FIG. 10D depicts the sub-nanomolar inhibition of esophageal cancer serum.

[5] = system: PDE3 enzyme; assay: Eurofins Safety Screen Panel: PDE3; type: biochemical; conditions: 10 μM
Description: as §1

[6] = target: recombinant CD73 (Homo sapiens (Human), UniProt P21589); assay: Potency against recombinant CD73, malachite green assay; type: biochemical
Description: (§2) The potency of Compound 9 was evaluated against recombinant CD73 and CD73-expressing SK-MEL-28 cells using a malachite green assay. Inhibition of CD73 in plasma was measured using LC/MS to assess conversion of ^15N5-AMP into ^15N5-ADO. FIG. 4A indicates the nanomolar inhibition of CD73 cells from both human and mouse sources. […] Inhibition of CD73 in plasma was measured using LC/MS to assess conversion of ^15N5-AMP into ^15N5-ADO.

[7] = target: CD73-expressing SK-MEL-28 cells (Homo sapiens (Human), UniProt P21589); assay: Human CD73 cell surface assay, CD73-expressing SK-MEL-28 cells, malachite green; type: cell-based
Description: as §2

[8] = target: Eurofins Express Diversity Kinase Profile Panel (45 targets); assay: Eurofins Express Diversity Kinase Profile Panel; type: biochemical
Description: as §1

[9] = target: human plasma CD73 (Homo sapiens (Human), UniProt P21589); assay: Inhibition of CD73 in human plasma, LC/MS conversion of 15N5-AMP into 15N5-ADO; type: biochemical
Description: as §2

[10] = system: EG7 cells; assay: Viability of EG7 cells, CellTiter-Glo; type: cell-based, mouse; conditions: 100 μM, 3 days
Description: (§3) Viability of EG7 and A375 cells treated with 100 μM Compound 9 was measured using CellTiter-Glo after 3 days. Proliferation of human CD8+ T cells was measured by flow cytometry after 4 days of treatment with 100 μM Compound 9 using CellTrace CFSE Cell Proliferation Kit.

[11] = target: recombinant human ENTPD3 (Homo sapiens (Human), UniProt O75355); assay: Recombinant human ENTPD3 malachite green assay; type: biochemical
Description: as §1

[12] = target: mouse plasma CD73 (Mus musculus (Mouse), UniProt Q61503); assay: Inhibition of CD73 in mouse plasma (IC50); type: biochemical
Description: as §2
Single dose Compound 9 (50 mg/kg) was administered orally to mice and plasma was collected at indicated time points. Compound 9 levels were measured by LC/MS. Plasma was harvested from mice 2 hours post dose and spiked with ^15N5-AMP and a TNAP inhibitor. ^15N5-ADO levels were measured by LC/MS.

[13] = system: Human CD8+ T cells; assay: Proliferation of human CD8+ T cells, CellTrace CFSE flow cytometry; type: cell-based; conditions: 100 μM, 4 days
Description: as §3

Chain of CD73 activity in cancer patient serum (P21589 27-574): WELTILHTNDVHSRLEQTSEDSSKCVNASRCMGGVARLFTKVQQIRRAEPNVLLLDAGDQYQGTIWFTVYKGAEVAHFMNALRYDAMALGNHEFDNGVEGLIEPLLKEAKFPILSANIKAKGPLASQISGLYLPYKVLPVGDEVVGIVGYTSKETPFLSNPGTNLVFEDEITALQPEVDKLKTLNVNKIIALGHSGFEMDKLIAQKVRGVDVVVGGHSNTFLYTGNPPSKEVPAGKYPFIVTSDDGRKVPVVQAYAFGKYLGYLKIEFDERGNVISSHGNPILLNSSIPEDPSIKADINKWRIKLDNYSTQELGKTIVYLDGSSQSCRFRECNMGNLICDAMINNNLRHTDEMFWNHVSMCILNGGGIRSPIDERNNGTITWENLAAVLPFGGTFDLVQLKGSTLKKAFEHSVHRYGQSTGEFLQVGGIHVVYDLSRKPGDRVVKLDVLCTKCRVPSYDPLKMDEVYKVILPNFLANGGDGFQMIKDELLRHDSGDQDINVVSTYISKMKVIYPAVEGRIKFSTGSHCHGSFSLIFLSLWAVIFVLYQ
Chain of recombinant human ENTPD3 (O75355 whole entry): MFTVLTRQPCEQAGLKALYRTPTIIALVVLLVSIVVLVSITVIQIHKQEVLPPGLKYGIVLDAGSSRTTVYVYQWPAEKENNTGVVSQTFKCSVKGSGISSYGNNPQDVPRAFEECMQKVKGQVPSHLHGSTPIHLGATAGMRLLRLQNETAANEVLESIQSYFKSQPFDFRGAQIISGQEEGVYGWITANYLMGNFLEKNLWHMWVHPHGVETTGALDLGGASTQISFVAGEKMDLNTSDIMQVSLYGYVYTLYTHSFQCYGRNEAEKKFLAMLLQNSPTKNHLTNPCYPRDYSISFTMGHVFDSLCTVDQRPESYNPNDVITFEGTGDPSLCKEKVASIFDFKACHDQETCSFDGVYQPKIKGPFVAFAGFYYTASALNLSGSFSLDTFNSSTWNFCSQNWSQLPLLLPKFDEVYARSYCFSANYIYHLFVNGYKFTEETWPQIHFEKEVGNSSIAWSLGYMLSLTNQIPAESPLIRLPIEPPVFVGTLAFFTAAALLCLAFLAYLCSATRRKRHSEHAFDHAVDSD
Chain of human plasma CD73 (P21589 27-574): as the sequence (P21589 27-574) above
Chain of recombinant CD73 (P21589 27-574): as above
Chain of CD73-expressing SK-MEL-28 cells (P21589 27-574): as above
Chain of human CD39 (P49961 whole entry): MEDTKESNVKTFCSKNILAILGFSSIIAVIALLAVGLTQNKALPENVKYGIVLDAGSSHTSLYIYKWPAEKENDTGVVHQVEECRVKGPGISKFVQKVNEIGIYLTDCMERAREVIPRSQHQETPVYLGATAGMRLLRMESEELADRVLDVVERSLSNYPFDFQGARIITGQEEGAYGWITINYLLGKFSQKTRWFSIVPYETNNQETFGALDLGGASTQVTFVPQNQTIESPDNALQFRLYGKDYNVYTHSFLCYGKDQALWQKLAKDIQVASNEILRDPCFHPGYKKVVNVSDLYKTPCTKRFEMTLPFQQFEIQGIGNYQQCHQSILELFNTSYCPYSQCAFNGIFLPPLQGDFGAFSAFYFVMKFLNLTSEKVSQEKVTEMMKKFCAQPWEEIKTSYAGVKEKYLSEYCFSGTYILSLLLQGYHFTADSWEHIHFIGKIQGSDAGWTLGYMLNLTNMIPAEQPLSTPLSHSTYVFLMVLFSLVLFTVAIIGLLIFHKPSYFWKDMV
Chain of mouse plasma CD73 (Q61503 29-576): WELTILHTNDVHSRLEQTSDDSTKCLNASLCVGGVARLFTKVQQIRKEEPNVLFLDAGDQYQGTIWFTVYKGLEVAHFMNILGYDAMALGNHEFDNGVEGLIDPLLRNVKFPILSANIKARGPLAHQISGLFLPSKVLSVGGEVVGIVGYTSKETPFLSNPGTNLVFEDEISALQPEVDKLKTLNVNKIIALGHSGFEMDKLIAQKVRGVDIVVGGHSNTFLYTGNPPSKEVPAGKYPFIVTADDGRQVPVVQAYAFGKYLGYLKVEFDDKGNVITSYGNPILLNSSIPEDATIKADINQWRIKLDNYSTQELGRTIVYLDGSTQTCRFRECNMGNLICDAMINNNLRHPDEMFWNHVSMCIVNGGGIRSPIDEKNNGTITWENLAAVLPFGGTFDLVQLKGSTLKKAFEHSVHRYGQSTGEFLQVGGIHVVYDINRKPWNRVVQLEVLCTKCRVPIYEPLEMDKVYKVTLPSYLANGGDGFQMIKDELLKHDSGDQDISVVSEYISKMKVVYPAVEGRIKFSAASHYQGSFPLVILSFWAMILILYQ

EC50 ([1]; 10 μM AMP, ELISA, read-out: EC50 for Granzyme B production): 5.6 nM
EC50 ([1]; 10 μM AMP, ELISA, read-out: EC50 for IFNγ production): 4.5 nM
EC50 ([1]; 20 μM AMP, flow cytometry, read-out: EC50 for CD8+ T cell activation (CD25 expression)): 9.6 nM
IC50 [2]: > 10000 nM
inhibition of CD73 activity in esophageal cancer serum ([4]; esophageal cancer serum): sub-nanomolar
inhibition of CD73 activity in HNSCC serum ([4]; head and neck squamous cell carcinoma serum): sub-nanomolar
inhibition of CD73 activity in ovarian cancer serum ([4]; ovarian cancer serum): sub-nanomolar
inhibition of CD73 activity in TNBC serum ([4]; triple-negative breast cancer serum): sub-nanomolar
IC50 [6]: 0.17 nM
IC50 [7]: 0.21 nM
Kinase Panel targets inhibited at >50% [8]: none of the 45 targets
IC50 [9]: 0.38 nM
IC50 [11]: > 10000 nM
IC50 [12]: 1 nM
Compound: C#C[C@@]1(O)[C@@H](COC(Cc2ccc(N3CCCNC3=O)cc2)(C(=O)O)C(=O)O)O[C@@H](n2cnc3c(N)nc(Cl)nc32)[C@@H]1O [Compound 9, 2-(((2R,3S,4R,5R)-5-(6-amino-2-chloro-9H-purin-9-yl)-3-ethynyl-3,4-dihydroxytetrahydrofuran-2-yl)methoxy)-2-(4-(2-oxotetrahydropyrimidin-1 (2H)-yl)benzyl)malonic acid]
EC50 ([1]; 20 μM AMP, flow cytometry, read-out: EC50 for CD8+ T cell proliferation): 11.6 nM
Safety Panel targets inhibited at >50% [3]: 1/87
PDE3 enzyme inhibition [5]: 59%
% cell survival of EG7 cells [10]: comparable % cell survival
% divided cells of human CD8+ T cells [13]: comparable % divided cells
